Results from ChEMBL document CHEMBL1145662, “Catharanthus alkaloids, XXXVIII. Confirming structural evidence and antineoplastic activity of the bisindole alkaloids leurosine-N'b-oxide (pleurosine), roseadine and vindolicine from Catharanthus roseus” (J Nat Prod, 1983).

Key:
P388 [1] = experiment: Antitumor activity against mouse P388 cells xenografted in CD2F1 mouse at 1 mg/kg relative to control; format: functional
P388 [2] = experiment: Antitumor activity against mouse P388 cells xenografted in CD2F1 mouse at 2 mg/kg relative to control; format: functional
B16 [3] = experiment: Antitumor activity against mouse B16 cells xenografted in B6C3F1 mouse at 0.5 mg/kg relative to control; format: functional
L1210 [4] = experiment: Antitumor activity against mouse L1210 cells xenografted in CD2F1 mouse at 20 mg/kg for 1 to 9 days relative to control; format: functional
L1210 [5] = experiment: Antitumor activity against mouse L1210 cells xenografted in CD2F1 mouse at 10 mg/kg for 1 to 9 days relative to control; format: functional
L1210 [6] = experiment: Antitumor activity against mouse L1210 cells xenografted in CD2F1 mouse at 5 mg/kg for 1 to 9 days relative to control; format: functional
MC-38 [7] = experiment: Antitumor activity against mouse Colon 38 cells xenografted in Swiss mouse at 20 mg/kg for 1 to 2 days relative to control; format: functional
MC-38 [8] = experiment: Antitumor activity against mouse Colon 38 cells xenografted in Swiss mouse at 10 mg/kg for 1 to 2 days relative to control; format: functional
MC-38 [9] = experiment: Antitumor activity against mouse Colon 38 cells xenografted in Swiss mouse at 5 mg/kg for 1 to 2 days relative to control; format: functional
B16 [10] = experiment: Antitumor activity against mouse B16 cells xenografted in B6C3F1 mouse at 10 mg/kg for 1 to 9 days relative to control; format: functional
B16 [11] = experiment: Antitumor activity against mouse B16 cells xenografted in B6C3F1 mouse at 5 mg/kg for 1 to 9 days relative to control; format: functional
B16 [12] = experiment: Antitumor activity against mouse B16 cells xenografted in B6C3F1 mouse at 2.5 mg/kg for 1 to 9 days relative to control; format: functional
P388 [13] = experiment: Antitumor activity against mouse P388 cells xenografted in CD2F1 mouse at 25 mg/kg for 1 to 9 days relative to control; format: functional
P388 [14] = experiment: Antitumor activity against mouse P388 cells xenografted in CD2F1 mouse at 12.5 mg/kg for 1 to 9 days relative to control; format: functional
P388 [15] = experiment: Antitumor activity against mouse P388 cells xenografted in CD2F1 mouse at 6.25 mg/kg for 1 to 9 days relative to control; format: functional
P388 [16] = experiment: Antitumor activity against mouse P388 cells xenografted in CD2F1 mouse at 25 mg/kg on 3rd, 6th and 9th day relative to control; format: functional
P388 [17] = experiment: Antitumor activity against mouse P388 cells xenografted in CD2F1 mouse at 12.5 mg/kg on 3rd, 6th and 9th day relative to control; format: functional
P388 [18] = experiment: Antitumor activity against mouse P388 cells xenografted in CD2F1 mouse at 6.25 mg/kg on 3rd, 6th and 9th day relative to control; format: functional
P388 [19] = experiment: Antitumor activity against mouse P388 cells xenografted in CD2F1 mouse at 32 mg/kg after 1 day relative to control; format: functional
P388 [20] = experiment: Antitumor activity against mouse P388 cells xenografted in CD2F1 mouse at 16 mg/kg after 1 day relative to control; format: functional
P388 [21] = experiment: Antitumor activity against mouse P388 cells xenografted in CD2F1 mouse at 8 mg/kg after 1 day relative to control; format: functional
P388 [22] = experiment: Antitumor activity against mouse P388 cells xenografted in CD2F1 mouse at 4 mg/kg after 1 day relative to control; format: functional
CX-1 [23] = experiment: Antitumor activity against human CX-1 cells xenografted in Swiss nu/nu athymic mouse at 160 mg/kg on 4th,8th,12th and 16th day relative to control; format: functional
CX-1 [24] = experiment: Antitumor activity against human CX-1 cells xenografted in Swiss nu/nu athymic mouse at 80 mg/kg on 4th,8th,12th and 16th day relative to control; format: functional
CX-1 [25] = experiment: Antitumor activity against human CX-1 cells xenografted in Swiss nu/nu athymic mouse at 40 mg/kg on 4th,8th,12th and 16th day relative to control; format: functional
CX-1 [26] = experiment: Antitumor activity against human CX-1 cells xenografted in Swiss nu/nu athymic mouse at 20 mg/kg on 4th,8th,12th and 16th day relative to control; format: functional
Mus musculus = experiment: Toxicity in mouse P388 cells xenografted in CD2F1 mouse at 20 mg/kg; format: organism-based; parameters: dose 20 mg/kg; settings: in vivo

Question: `CC[C@@H]1C[C@H]2CN(CCc3c([nH]c4ccccc34)[C@@](C(=O)OC)(c3cc4c(cc3OC)N(C)[C@H]3[C@@](O)(C(=O)OC)[C@H](OC(C)=O)[C@]5(CC)C=CCN6CC[C@]43[C@@H]65)C2)C1` [ROSEAMINE] was tested. Which T/C (P388 [1]) did it give?
Answer: The T/C was 161%.

Question: `CC[C@]1(O)CN2CCc3c([nH]c4ccccc34)[C@@H]1[C@@H](/C=C(\C(=O)OC)c1cc3c(cc1OC)N(C)C1[C@]34CCN3CC=C[C@](CC)(C34)[C@@H](OC(C)=O)[C@]1(O)C(=O)OC)C2` (some centres not stated) [ROSEADINE] was tested. Which T/C (P388 [2]) did it give?
Answer: Its T/C is 176%.

Question: How did the T/C (B16 [3]) turn out when `CC[C@]1(O)C[C@@H]2CN(CCc3c([nH]c4ccccc34)[C@@](C(=O)OC)(c3cc4c(cc3OC)N(C)[C@H]3[C@@](O)(C(=O)OC)[C@H](OC(C)=O)[C@]5(CC)C=CCN6CC[C@]43[C@@H]65)C2)C1` [VINBLASTINE] was run?
Answer: The T/C was 309%.

Question: With `CC[C@@]12C[N+]3([O-])CCc4c([nH]c5ccccc45)[C@@](C(=O)OC)(c4cc5c(cc4OC)N(C)[C@H]4[C@@](O)(C(=O)OC)[C@H](OC(C)=O)[C@]6(CC)C=CCN7CC[C@]54[C@@H]76)C[C@@H](C[C@@H]1O2)C3` as the compound, how does the T/C (L1210 [4]) read?
Answer: Its T/C is 112%.

Question: What about the T/C (L1210 [5]) of the same compound?
Answer: The T/C was 133%.

Question: And the T/C (L1210 [6])?
Answer: The T/C was 101%.

Question: What about the T/C (MC-38 [7]) of the same compound?
Answer: The T/C was 82%.

Question: And the T/C (MC-38 [8])?
Answer: The T/C was 108%.

Question: What about the T/C (MC-38 [9]) of the same compound?
Answer: The T/C was 84%.

Question: And the T/C (B16 [10])?
Answer: The T/C was 309%.

Question: What about the T/C (B16 [11]) of the same compound?
Answer: The T/C was 261%.

Question: And the T/C (B16 [12])?
Answer: Its T/C is 189%.

Question: What about the T/C (P388 [13]) of the same compound?
Answer: Its T/C is 181%.

Question: And the T/C (P388 [14])?
Answer: The T/C was 163%.

Question: And the T/C (P388 [15])?
Answer: Its T/C is 154%.

Question: What about the T/C (P388 [16]) of the same compound?
Answer: The T/C was 181%.

Question: What about the T/C (P388 [17]) of the same compound?
Answer: Its T/C is 177%.

Question: What about the T/C (P388 [18]) of the same compound?
Answer: Its T/C is 168%.

Question: And the T/C (P388 [19])?
Answer: Its T/C is 140%.

Question: And the T/C (P388 [20])?
Answer: Its T/C is 193%.

Question: And the T/C (P388 [21])?
Answer: The T/C was 161%.

Question: And the T/C (P388 [22])?
Answer: The T/C was 142%.

Question: And the T/C (CX-1 [23])?
Answer: Its T/C is 71%.

Question: What about the T/C (CX-1 [24]) of the same compound?
Answer: The T/C was 85%.

Question: What about the T/C (CX-1 [25]) of the same compound?
Answer: Its T/C is 60%.

Question: And the T/C (CX-1 [26])?
Answer: Its T/C is 81%.

Question: What about the Activity (Mus musculus) of the same compound?
Answer: Its Activity is “Toxic”.
